What is called IC50 is the concentration that gives 50% inhibition. Low readings indicate higher potency, high ones lower potency.

From patent US4119717A, “16-S-acyl derivatives of fusidic acid” (Leo Pharmaceutical Products Ltd. A/S Lovens Kemiske Fabrik, priority 1976, dated 1978) come the findings set out here.

What all share (assay): Antibacterial activity, concentration required for 50% inhibition
Holding throughout (format): cell-based

For assay [1], the system named is Bacteroides fragilis Leo JA 2. The following applies: LEOJA2. The text has this:
(§1) Now, however, it has been found, that the compounds of the present invention both in vitro and in vivo show interesting antimicrobial and pharmacokinetic properties. Thereby the compounds of the invention can be used in the treatment of bacterial infections in humans and animals.

Assay [2] has as its system Staph.aureus Leo CC 178 A. The following applies: Staphylococcus aureus, LEOCC178A.
Source text: as §1

Assay [3] has as its system Staph.aureus Leo CC 178 B. The following applies: Staphylococcus aureus, LEOCC178B.
Source text: as §1

The next assay relates to Strep.pyogenes Leo EC. The following applies: Streptococcus pyogenes.
Source text: as §1

A further assay has as its system Strep.sp. Leo EG 2.
Source text: as §1

Converted amounts (≈) assume the structure as drawn.

Regarding `CC(=O)S[C@H]1C[C@@]2(C)[C@@H](C[C@@H](O)[C@H]3[C@@]4(C)CC[C@@H](O)[C@@H](C)[C@@H]4CC[C@@]32C)/C1=C(\CCCC(C)C)C(=O)O` [Example 3, 16-Deacetoxy-16β-acetylthio-24,25-dihydrofusidic acid], the concentration for half-maximal inhibition (IC50) in assay [1] was 0.5 µg/mL (≈ 0.935 µM); in assay [2], 3.2 µg/mL (≈ 5.98 µM); in assay [3] it was 0.008 µg/mL (≈ 0.015 µM); with Strep.pyogenes Leo EC it was 0.16 µg/mL (≈ 0.299 µM); in the assay with Strep.sp. Leo EG 2 it was 0.25 µg/mL (≈ 0.467 µM).
In the same order, the values of `CC(=O)S[C@H]1C[C@@]2(C)[C@@H](C[C@@H](O)[C@H]3[C@@]4(C)CC[C@H](Br)[C@@H](C)[C@@H]4CC[C@@]32C)/C1=C(\CCCC(C)C)C(=O)O` [Example 22, 3-deoxy-3β-bromo-16-deacetoxy-16β-acetylthio-24,25-dihydrofusidic acid] are 2 µg/mL (≈ 3.35 µM), 1.6 µg/mL (≈ 2.68 µM), 0.079 µg/mL (≈ 0.132 µM), 0.79 µg/mL (≈ 1.32 µM) and 1.6 µg/mL (≈ 2.68 µM).
On the same counts, the results for `CC(=O)S[C@H]1C[C@@]2(C)[C@@H](CC(=O)[C@H]3[C@@]4(C)CC[C@@H](O)[C@@H](C)[C@@H]4CC[C@@]32C)/C1=C(\CCC=C(C)C)C(=O)O` [Example 7, 11-keto-16-deacetoxy-16β-(acetylthio)fusidic acid] are 2 µg/mL (≈ 3.77 µM), 20 µg/mL (≈ 37.7 µM), 0.02 µg/mL (≈ 0.0377 µM), 1 µg/mL (≈ 1.88 µM) and 2 µg/mL (≈ 3.77 µM).
In the same order, the values of `CC(=O)S[C@H]1C[C@@]2(C)[C@@H](CC(=O)[C@H]3[C@@]4(C)CC[C@@H](O)[C@@H](C)[C@@H]4CC[C@@]32C)/C1=C(\CCCC(C)C)C(=O)O` [Example 8] are 2 µg/mL (≈ 3.75 µM), 16 µg/mL (≈ 30 µM), 0.02 µg/mL (≈ 0.0375 µM), 1 µg/mL (≈ 1.88 µM) and 2 µg/mL (≈ 3.75 µM).
Take `CC(=O)S[C@H]1C[C@@]2(C)[C@@H](C[C@@H](O)[C@H]3[C@@]4(C)CC[C@H](N=[N+]=[N-])[C@@H](C)[C@@H]4CC[C@@]32C)/C1=C(\CCCC(C)C)C(=O)O` [Example 28]: the IC50 in assay [1] is 1.6 µg/mL (≈ 2.86 µM); in assay [2], 2 µg/mL (≈ 3.57 µM); in assay [3], 1.6 µg/mL (≈ 2.86 µM); with Strep.pyogenes Leo EC, 0.63 µg/mL (≈ 1.13 µM); in the assay with Strep.sp. Leo EG 2, 0.63 µg/mL (≈ 1.13 µM).
For the compound `CC(=O)S[C@H]1C[C@@]2(C)[C@@H](C[C@@H](O)[C@H]3[C@@]4(C)CC[C@@H](O)[C@@H](C)[C@@H]4CC[C@@]32C)/C1=C(\CCC=C(C)C)C(=O)O` [Example 1, 16-Deacetoxy-16β-(acetylthio)fusidic acid], the IC50 in assay [1] stood at 0.79 µg/mL (≈ 1.48 µM); in assay [2], 6.3 µg/mL (≈ 11.8 µM); in assay [3], 0.01 µg/mL (≈ 0.0188 µM); with Strep.pyogenes Leo EC it was 0.2 µg/mL (≈ 0.375 µM); in the assay with Strep.sp. Leo EG 2 it was 0.2 µg/mL (≈ 0.375 µM).
Take `CC(=O)S[C@H]1C[C@@]2(C)[C@@H](C[C@@H](O)[C@H]3[C@@]4(C)CC[C@H](Br)[C@@H](C)[C@@H]4CC[C@@]32C)/C1=C(\CCC=C(C)C)C(=O)O` [Example 21, 3-Deoxy-3β-bromo-16-deacetoxy-16β-(acetylthio)fusidic acid]: the IC50 in assay [1] is 3.2 µg/mL (≈ 5.37 µM); in assay [2], 4 µg/mL (≈ 6.71 µM); in assay [3] it was 0.13 µg/mL (≈ 0.218 µM); in the assay with Strep.pyogenes Leo EC, 0.32 µg/mL (≈ 0.537 µM); in the assay on Strep.sp. Leo EG 2, 1 µg/mL (≈ 1.68 µM).
On the same counts, the results for `CC(=O)O[C@H]1C[C@@]2(C)[C@@H](C[C@@H](O)[C@H]3[C@@]4(C)CC[C@@H](O)[C@@H](C)[C@@H]4CC[C@@]32C)/C1=C(\CCC=C(C)C)C(=O)O` [Fusidic acid] are 1.6 µg/mL (≈ 3.1 µM), 16 µg/mL (≈ 31 µM), 0.025 µg/mL (≈ 0.0484 µM), 0.63 µg/mL (≈ 1.22 µM) and 1.6 µg/mL (≈ 3.1 µM).
As for `CC(C)CCC/C(C(=O)O)=C1/[C@@H](SC(=O)c2ccccc2)C[C@@]2(C)[C@H]1C[C@@H](O)[C@H]1[C@@]3(C)CC[C@@H](O)[C@@H](C)[C@@H]3CC[C@@]12C` [Example 4, 16-Deacetoxy-16β-benzoylthio-24,25-dihydrofusidic acid], the IC50 was 1.6 µg/mL (≈ 2.68 µM) in assay [1]; 1.6 µg/mL (≈ 2.68 µM) in assay [2]; 0.5 µg/mL (≈ 0.838 µM) in assay [3]; 0.2 µg/mL (≈ 0.335 µM) in the assay on Strep.pyogenes Leo EC; 0.63 µg/mL (≈ 1.06 µM) in the assay with Strep.sp. Leo EG 2.
As for `CC(=O)S[C@H]1C[C@@]2(C)[C@@H](C[C@@H](O)[C@H]3[C@@]4(C)CC[C@H](Cl)[C@@H](C)[C@@H]4CC[C@@]32C)/C1=C(\CCC=C(C)C)C(=O)O` [Example 29], the IC50 in assay [1] came to 1.3 µg/mL (≈ 2.36 µM); in assay [2], 2 µg/mL (≈ 3.63 µM); in assay [3] it was 0.5 µg/mL (≈ 0.907 µM); in the assay on Strep.pyogenes Leo EC, 0.63 µg/mL (≈ 1.14 µM); in the assay on Strep.sp. Leo EG 2 it was 1.6 µg/mL (≈ 2.9 µM).
In the same order, the values of `CC(=O)S[C@H]1C[C@@]2(C)[C@@H](C[C@@H](O)[C@H]3[C@@]4(C)CC[C@@H](N=[N+]=[N-])[C@@H](C)[C@@H]4CC[C@@]32C)/C1=C(\CCCC(C)C)C(=O)O` [Example 36, 3-Deoxy-3α-azido-16-deacetoxy-16β-acetylthio-24,25-dihydrofusidic acid] are 5 µg/mL (≈ 8.93 µM), 5 µg/mL (≈ 8.93 µM), 0.063 µg/mL (≈ 0.113 µM), 0.4 µg/mL (≈ 0.715 µM) and 2 µg/mL (≈ 3.57 µM).
